The values that follow come from patent US12344615B2, “Substituted pyridines as ion channel modulators” (PRAXIS PRECISION MEDICINES, INC., priority 2019, dated 2025).

The term inhibition denotes the change of the read-out against control, counted positive when it falls.

Structures are written as SMILES. Some results are limits rather than exact numbers.

In this test the target is T1, INaL v1.6 (late sodium current, HEK-293 cells expressing recombinant sodium channels) (Homo sapiens, UniProt Q9UQD0).
T1 construct: expressed in transfected cells; host or cells: HEK-293
T1 sequence (Q9UQD0 whole entry): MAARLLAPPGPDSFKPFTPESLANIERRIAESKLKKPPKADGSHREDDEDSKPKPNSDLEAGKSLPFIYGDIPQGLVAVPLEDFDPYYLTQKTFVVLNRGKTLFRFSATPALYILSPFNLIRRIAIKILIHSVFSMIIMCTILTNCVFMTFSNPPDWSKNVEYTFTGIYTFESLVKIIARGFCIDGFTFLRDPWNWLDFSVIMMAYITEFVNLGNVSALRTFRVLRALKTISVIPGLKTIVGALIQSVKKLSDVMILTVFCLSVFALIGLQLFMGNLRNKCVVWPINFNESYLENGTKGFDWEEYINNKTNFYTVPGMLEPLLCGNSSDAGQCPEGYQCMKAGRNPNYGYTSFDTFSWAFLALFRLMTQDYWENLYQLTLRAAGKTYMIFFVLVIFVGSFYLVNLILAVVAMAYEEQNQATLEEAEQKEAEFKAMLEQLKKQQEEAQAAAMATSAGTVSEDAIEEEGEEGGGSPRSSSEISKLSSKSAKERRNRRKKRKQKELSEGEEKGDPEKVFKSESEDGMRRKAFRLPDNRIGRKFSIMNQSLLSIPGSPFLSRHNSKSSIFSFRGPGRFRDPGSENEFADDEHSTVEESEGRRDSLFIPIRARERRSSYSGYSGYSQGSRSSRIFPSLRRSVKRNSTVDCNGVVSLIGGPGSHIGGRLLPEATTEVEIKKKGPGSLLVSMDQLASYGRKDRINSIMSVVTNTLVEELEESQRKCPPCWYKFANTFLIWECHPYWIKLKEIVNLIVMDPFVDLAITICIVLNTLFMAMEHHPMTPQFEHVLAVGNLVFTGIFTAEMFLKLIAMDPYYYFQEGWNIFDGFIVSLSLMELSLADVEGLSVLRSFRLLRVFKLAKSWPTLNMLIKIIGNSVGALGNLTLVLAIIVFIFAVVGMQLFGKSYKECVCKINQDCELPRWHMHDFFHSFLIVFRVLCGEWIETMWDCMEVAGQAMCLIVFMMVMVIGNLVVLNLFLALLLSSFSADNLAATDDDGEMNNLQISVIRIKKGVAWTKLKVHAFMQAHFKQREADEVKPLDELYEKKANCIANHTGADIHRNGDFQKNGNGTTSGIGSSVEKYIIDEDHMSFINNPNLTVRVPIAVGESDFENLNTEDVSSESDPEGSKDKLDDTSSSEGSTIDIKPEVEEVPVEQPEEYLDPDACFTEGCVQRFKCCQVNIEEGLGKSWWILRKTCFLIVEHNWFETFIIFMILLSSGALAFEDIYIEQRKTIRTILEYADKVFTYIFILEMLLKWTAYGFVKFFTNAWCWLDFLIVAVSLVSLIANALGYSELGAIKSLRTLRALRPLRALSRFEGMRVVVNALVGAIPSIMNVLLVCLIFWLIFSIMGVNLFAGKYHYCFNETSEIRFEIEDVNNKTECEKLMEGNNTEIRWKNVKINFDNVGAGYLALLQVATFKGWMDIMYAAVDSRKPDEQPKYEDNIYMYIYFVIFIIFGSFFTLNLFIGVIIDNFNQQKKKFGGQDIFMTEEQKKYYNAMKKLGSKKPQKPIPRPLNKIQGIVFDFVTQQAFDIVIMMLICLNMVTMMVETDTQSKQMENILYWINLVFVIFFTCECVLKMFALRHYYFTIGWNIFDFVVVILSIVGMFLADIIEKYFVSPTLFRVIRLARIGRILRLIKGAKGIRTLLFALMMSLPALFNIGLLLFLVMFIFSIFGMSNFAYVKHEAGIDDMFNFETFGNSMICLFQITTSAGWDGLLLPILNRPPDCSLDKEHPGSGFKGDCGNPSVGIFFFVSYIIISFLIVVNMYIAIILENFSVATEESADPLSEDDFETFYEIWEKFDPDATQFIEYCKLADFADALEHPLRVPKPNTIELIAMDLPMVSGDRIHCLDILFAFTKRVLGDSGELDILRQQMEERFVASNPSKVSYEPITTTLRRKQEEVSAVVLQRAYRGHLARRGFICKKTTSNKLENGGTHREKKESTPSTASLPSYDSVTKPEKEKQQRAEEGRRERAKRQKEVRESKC
The test can be described thus: Inhibition of ATX-II evoked Nav late current (INaL), PatchXpress electrophysiology. It is filed as cell-based. The following applies: late current evoked by ATX-II 300 nM; for inhibition at 1 µM: HEK293, compound at 1 μM; for INaL v1.6 % Inhibition: compound at 1 μM. The procedure: Functional characterization of exemplary compounds to modulate voltage gated sodium currents was accomplished using the PatchXpress™ high throughput electrophysiology platforms (Molecular Devices, Sunnyvale, CA). HEK-293 cells expressing recombinant sodium channels were grown in DMEM/high-glucose Dulbecco's modified, 10% FBS, 2 mM sodium pyruvate, and G418. Nav channel expressing cells were grown to 50%-80% confluency and harvested by trypsinization. Trypsinized cells were washed and resuspended in extracellular buffer at a concentration of 1×10^6 cells/ml. The onboard liquid handling facility of the PatchXpress was used for dispensing cells and application of test compounds. Nav late currents were evoked by the application of ATX-II, 300 nM. Currents were evoked by depolarizing pulses to 0 mV for 200 ms from a non-inactivating holding potential (e.g., −120 mV to −150 mV) at a frequency of 0.1 Hz. Late current amplitude and stability were determined by analyzing the mean current amplitude over the 175-195 msec region of the 200 msec test pulse. Following steady state block with exemplary compounds (e.g., as described herein) at 1 μM, a Na^+ free solution containing an impermeant cation (e.g., Choline or NDMG) was added for determination of the 0 current level. Late current amplitudes for each test condition were determined from the mean of the 175-195 msec region of the 200 msec test pulse. Percent inhibition of steady state currents was calculated as (compound−baseline)/(control−baseline)*100, where control represents INaL recorded in the absence of compound.

As for `CC(C)(Oc1ncc(-c2cn3c(C4CC4(F)F)nnc3cn2)cc1F)C(F)(F)F` (single isomer, unassigned) [13 (Isomer 1)], the inhibition at 1 µM is less than 50%.
Take `C[C@H](Oc1ncc(-c2nn3c(C(F)(F)F)nnc3cc2Cl)cc1F)C(F)(F)F` [Compound 43, 7-chloro-6-[5-fluoro-6-[(1S)-2,2,2-trifluoro-1-methyl-ethoxy]-3-pyridyl]-3-(trifluoromethyl)-[1,2,4]triazolo[4,3-b]pyridazine]: the inhibition at 1 µM was 50 to 75%.
As for `Fc1cc(-c2ccc3nnc(C(F)F)n3n2)cnc1OCC1CC1(F)F` (single isomer, unassigned) [21 (Isomer 1)], the inhibition at 1 µM lay within 50 to 75%.
`CC(C)(Oc1ncc(-c2cn3c(C4CC(F)(F)C4)nnc3cn2)cc1F)C(F)(F)F` [Compound 8, 3-(3,3-difluorocyclobutyl)-6-[5-fluoro-6-(2,2,2-trifluoro-1,1-dimethyl-ethoxy)-3-pyridyl]-[1,2,4]triazolo[4,3-a]pyrazine]: the inhibition at 1 µM is 50 to 75%.
Still for that read-out and setting: the result for `FC(F)c1nnc2cnc(-c3ccc(OC4CC(F)(F)C4)nc3)cn12` [Compound 52, 6-(6-(3,3-difluorocyclobutoxy)pyridin-3-yl)-3-(difluoromethyl)-[1,2,4]triazolo [4,3-a]pyrazine] reads 50 to 75%; that for `CC(C)(Oc1ncc(-c2ccc3nnc(C4CC4(F)F)n3n2)cc1F)C(F)(F)F` (single isomer, unassigned) [11 (Isomer 1)], greater than 75%.
On to `Fc1cc(-c2cn3c(C(F)(F)F)nnc3cn2)cnc1OC1(C(F)(F)F)COC1` [Compound 2, 6-[5-fluoro-6-[3-(trifluoromethyl)oxetan-3-yl]oxy-3-pyridyl]-3-(trifluoromethyl)-[1,2,4]triazolo[4,3-a]pyrazine], for which the inhibition at 1 µM is less than 50%.
For `C[C@H](Oc1ncc(-c2cn3c(C4CC4(F)F)nnc3cn2)cc1F)C(F)(F)F` (single isomer, unassigned) [18 (Isomer 2)], the “INaL v1.6 % Inhibition” value is “B (inhibition of 50% to 75%)”.
With `CC(C)(Oc1ncc(-c2ccc3nnc(C(F)(F)F)n3n2)cc1F)C(F)(F)F` [Compound 34, 6-[5-fluoro-6-(2,2,2-trifluoro-1,1-dimethyl-ethoxy)-3-pyridyl]-3-(trifluoromethyl)-[1,2,4]triazolo[4,3-b]pyridazine], the inhibition at 1 µM is greater than 75%.
Consider `CC(C)(Oc1ccc(-c2nn3c(C(F)(F)F)nnc3cc2Cl)cn1)C(F)(F)F` [Compound 50, 7-chloro-6-[6-(2,2,2-trifluoro-1,1-dimethyl-ethoxy)-3-pyridyl]-3-(trifluoromethyl)-[1,2,4]triazolo[4,3-b]pyridazine], for which the inhibition at 1 µM was greater than 75%.
As for `C[C@@H](Oc1ncc(-c2ccc3nnc(C(F)F)n3n2)cc1F)C(F)(F)F` [Compound 17, 3-(difluoromethyl)-6-[5-fluoro-6-[(1R)-2,2,2-trifluoro-1-methyl-ethoxy]-3-pyridyl]-[1,2,4]triazolo[4,3-b]pyridazine], the inhibition at 1 µM was greater than 75%.
With `CC(C)(Oc1ncc(-c2cn3c(C(F)F)nnc3cn2)cc1F)C(F)(F)F` [Compound 1, 3-(difluoromethyl)-6-[5-fluoro-6-(2,2,2-trifluoro-1,1-dimethyl-ethoxy)-3-pyridyl]-[1,2,4]triazolo[4,3-a]pyrazine], the inhibition at 1 µM was greater than 75%.
On the same count and under the same terms, with `CC(C)(Oc1ncc(-c2ccc3nnc(C4CC(F)(F)C4)n3n2)cc1F)C(F)(F)F` [Compound 14, 3-(3,3-difluorocyclobutyl)-6-[5-fluoro-6-(2,2,2-trifluoro-1,1-dimethyl-ethoxy)-3-pyridyl]-[1,2,4]triazolo[4,3-b]pyridazine] the figure was greater than 75%; with `CC(C)(Oc1ncc(-c2ccc3nnc(C4CC4(F)F)n3n2)cc1F)C(F)(F)F` (stereo not shown) [Compound 12, 3-(2,2-difluorocyclopropyl)-6-[5-fluoro-6-(2,2,2-trifluoro-1,1-dimethyl-ethoxy)-3-pyridyl]-[1,2,4]triazolo[4,3-b]pyridazine], greater than 75%; with `Fc1cc(-c2cn3c(C(F)(F)F)nnc3cn2)cnc1OC1CC(F)(F)C1(F)F` (stereo not shown) [Compound 33, 6-[5-fluoro-6-(2,2,3,3-tetrafluorocyclobutoxy)-3-pyridyl]-3-(trifluoromethyl)-[1,2,4]triazolo[4,3-a]pyrazine], greater than 75%.
Turning to `CC(C)(Oc1ncc(-c2cn3c(C(F)(F)F)nnc3cn2)cc1F)C(F)(F)F` [Compound 3, 6-[5-fluoro-6-(2,2,2-trifluoro-1,1-dimethyl-ethoxy)-3-pyridyl]-3-(trifluoromethyl)-[1,2,4]triazolo[4,3-a]pyrazine], the inhibition at 1 µM is greater than 75%.
Same read-out and setting: with `Fc1cc(-c2cn3c(C(F)F)nnc3cn2)cnc1OCC1CC1(F)F` (stereo not shown) [Compound 31, 6-[6-[(2,2-difluorocyclopropyl)methoxy]-5-fluoro-3-pyridyl]-3-(difluoromethyl)-[1,2,4]triazolo[4,3-a]pyrazine] the figure was less than 50%; with `Cc1c(-c2cnc(O[C@@H](C)C(F)(F)F)c(F)c2)ncc2nnc(C(F)(F)F)n12` [Compound 38, 6-[5-fluoro-6-[(1S)-2,2,2-trifluoro-1-methyl-ethoxy]-3-pyridyl]-5-methyl-3-(trifluoromethyl)-[1,2,4]triazolo[4,3-a]pyrazine], 50 to 75%; with `Fc1cc(-c2cn3c(C(F)(F)F)nnc3cn2)cnc1OC1(C(F)(F)F)CCC1` [Compound 7, 6-[5-fluoro-6-[1-(trifluoromethyl)cyclobutoxy]-3-pyridyl]-3-(trifluoromethyl)-[1,2,4]triazolo[4,3-a]pyrazine], greater than 75%.
With `Fc1cc(-c2ccc3nnc(C(F)F)n3n2)cnc1OCC1CC1(F)F` (single isomer, unassigned) [21 (Isomer 2)], the “INaL v1.6 % Inhibition” value is listed as “A (inhibition of less than 50%)”.
Consider `Fc1cc(-c2ccc3nnc(C(F)(F)F)n3n2)cnc1OC1CC(F)(F)C1(F)F` (single isomer, unassigned) [25 (Isomer 1)], for which the inhibition at 1 µM was greater than 75%.
The same measure, in the same setting: the result for `C[C@@H](Oc1ncc(-c2nn3c(C(F)(F)F)nnc3cc2Cl)cc1F)C(F)(F)F` [Compound 42, 7-chloro-6-[5-fluoro-6-[(1R)-2,2,2-trifluoro-1-methyl-ethoxy]-3-pyridyl]-3-(trifluoromethyl)-[1,2,4]triazolo[4,3-b]pyridazine] reads 50 to 75%; that for `Fc1cc(-c2cn3c(C(F)F)nnc3cn2)cnc1OCC1CC1(F)F` (single isomer, unassigned) [30 (Isomer 1)], less than 50%.
With `Cc1c(-c2cnc(O[C@H](C)C(F)(F)F)c(F)c2)ncc2nnc(C(F)(F)F)n12` [Compound 39, 6-[5-fluoro-6-[(1R)-2,2,2-trifluoro-1-methyl-ethoxy]-3-pyridyl]-5-methyl-3-(trifluoromethyl)-[1,2,4]triazolo[4,3-a]pyrazine], the inhibition at 1 µM is 50 to 75%.
As for `Fc1cc(-c2cn3c(C(F)(F)F)nnc3cn2)cnc1OCC1CC1(F)F` (single isomer, unassigned) [28 (Isomer 1)], the inhibition at 1 µM lay within 50 to 75%.
